From patent publication EP0262053A2, “Amino-acid derivatives, their preparation and pharmaceutical compositions containing them” (CENTRE NATIONAL DE LA RECHERCHE SCIENTIFIQUE (CNRS), priority 1986, dated 1988)

Key:
[1] = target: T1, enképhalinase purifiée du rein de lapin (Oryctolagus cuniculus, UniProt P08049); assay: Inhibitory power on enkephalinase (endopeptidase), substrate [3H]D-Ala2-Leu5 enkephalin; assay type: biochemical; conditions: purified rabbit kidney enzyme, 20 min at 25°C, Tris-HCl pH 7.4; read-out: Enképhalinase(M), concentrations inhibitrices 50 % (converted)
T1 construct: l'enképhalinase purifiée du rein de lapin; from tissue; host or cells: rabbit kidney
T1 sequence (P08049 1-750): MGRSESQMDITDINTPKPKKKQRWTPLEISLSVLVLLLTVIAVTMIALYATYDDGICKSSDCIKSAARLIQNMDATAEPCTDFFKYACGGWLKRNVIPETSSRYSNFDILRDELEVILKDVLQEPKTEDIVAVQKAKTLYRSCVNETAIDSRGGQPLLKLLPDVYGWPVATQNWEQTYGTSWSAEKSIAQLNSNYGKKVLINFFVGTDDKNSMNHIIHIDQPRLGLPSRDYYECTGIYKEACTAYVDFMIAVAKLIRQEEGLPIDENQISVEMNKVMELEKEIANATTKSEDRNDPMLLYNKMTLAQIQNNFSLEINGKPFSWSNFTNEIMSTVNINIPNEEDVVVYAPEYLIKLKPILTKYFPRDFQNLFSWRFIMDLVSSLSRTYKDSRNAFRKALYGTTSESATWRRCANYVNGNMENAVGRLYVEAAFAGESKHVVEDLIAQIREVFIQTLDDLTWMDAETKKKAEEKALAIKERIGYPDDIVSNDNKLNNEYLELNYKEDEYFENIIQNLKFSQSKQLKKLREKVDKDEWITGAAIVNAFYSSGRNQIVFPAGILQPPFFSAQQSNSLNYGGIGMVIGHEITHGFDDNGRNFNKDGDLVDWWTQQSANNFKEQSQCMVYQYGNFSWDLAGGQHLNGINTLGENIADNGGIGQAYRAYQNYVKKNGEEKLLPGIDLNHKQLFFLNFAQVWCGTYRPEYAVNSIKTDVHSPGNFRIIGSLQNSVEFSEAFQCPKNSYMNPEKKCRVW
Description: Le pouvoir inhibiteur est déterminé sur de l'enképhalinase purifiée du rein de lapin en suivant le protocole décrit dans la littérature (Llorens, C., B. Malfroy, J.C. Schwartz, G. Gacel, B.P. Roques et al., 1982, J. Neurochem. 39, 1081).
Après une pré-incubation de 15 minutes à 25°C, une aliquote de protéines est incubée pendant 20 minutes à 25°C en présence de 20 nanomoles de [³H]D-Ala²-Leu⁵ enképhaline et du produit à tester dans le tampon Tris-HCl (pH 7.4) 50 mM. On arrête la réaction par addition d'HCl 0.2 N. Le métabolite tritié [³H]Tyr-D-Ala-Gly est séparé de la D-Ala²-Leu⁵-enképhaline par chromatographie sur colonne de porapak.
(§1) L'activité des différents produits est exprimée en concentrations inhibitrices 50 %.

[2] = target: T2, dipeptidylaminopeptidase purifiée à partir du cerveau de rat (Rattus norvegicus, UniProt O55096); assay: Inhibitory power on dipeptidylaminopeptidase, substrate [3H]Leu5-enkephalin; assay type: biochemical; conditions: enzyme purified from rat brain, [3H]Leu5-enkephalin substrate; read-out: Dipeptidyla-minopeptida-se(M), concentrations inhibitrices 50 % (converted)
T2 construct: purifiée à partir du cerveau de rat; from tissue; host or cells: rat brain
T2 sequence (O55096 2-738 limits assumed): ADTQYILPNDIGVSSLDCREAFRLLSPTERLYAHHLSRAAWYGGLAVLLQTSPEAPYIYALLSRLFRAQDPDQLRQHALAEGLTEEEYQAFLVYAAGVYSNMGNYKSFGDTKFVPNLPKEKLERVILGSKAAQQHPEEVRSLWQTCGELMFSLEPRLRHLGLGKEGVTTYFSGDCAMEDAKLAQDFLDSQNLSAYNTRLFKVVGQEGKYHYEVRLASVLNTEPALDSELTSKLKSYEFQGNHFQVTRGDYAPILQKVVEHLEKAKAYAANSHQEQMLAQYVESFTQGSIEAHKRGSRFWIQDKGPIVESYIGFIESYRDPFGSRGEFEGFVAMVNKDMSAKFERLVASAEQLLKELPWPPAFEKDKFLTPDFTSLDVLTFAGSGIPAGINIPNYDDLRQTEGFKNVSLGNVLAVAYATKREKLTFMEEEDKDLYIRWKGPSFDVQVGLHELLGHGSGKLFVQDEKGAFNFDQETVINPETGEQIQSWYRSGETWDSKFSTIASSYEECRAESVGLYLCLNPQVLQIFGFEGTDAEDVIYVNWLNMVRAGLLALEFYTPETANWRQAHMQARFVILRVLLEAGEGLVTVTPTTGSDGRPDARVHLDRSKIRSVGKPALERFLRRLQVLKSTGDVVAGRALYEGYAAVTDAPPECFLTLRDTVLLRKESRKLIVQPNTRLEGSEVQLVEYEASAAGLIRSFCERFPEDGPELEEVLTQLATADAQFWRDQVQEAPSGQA
Description: Le pouvoir inhibiteur est mesuré sur la dipeptidylaminopeptidase purifiée à partir du cerveau de rat en suivant le protocole décrit (Romaine Bouboutou, Gilles Waksman, Joceyline Deim, Marie-Claude Fournié-Zaluski and Bernard P. Roques, Life Sciences, vol. 35, pp. 1023-1030, 1984).. On utilise également la [³H]Leu⁵-enképhaline comme substrat.
as §1

[3] = target: T3, aminopeptidase purifiée du rein de lapin (Oryctolagus cuniculus, UniProt P15541); assay: Inhibitory power on aminopeptidase, substrate [3H]Leu5-enkephalin; assay type: biochemical; conditions: purified rabbit kidney enzyme, [3H]Leu5-enkephalin substrate; read-out: Aminopeptidase(M), concentrations inhibitrices 50 % (converted)
T3 construct: purifiée du rein de lapin; from tissue; host or cells: rabbit kidney
T3 sequence (P15541 1-966): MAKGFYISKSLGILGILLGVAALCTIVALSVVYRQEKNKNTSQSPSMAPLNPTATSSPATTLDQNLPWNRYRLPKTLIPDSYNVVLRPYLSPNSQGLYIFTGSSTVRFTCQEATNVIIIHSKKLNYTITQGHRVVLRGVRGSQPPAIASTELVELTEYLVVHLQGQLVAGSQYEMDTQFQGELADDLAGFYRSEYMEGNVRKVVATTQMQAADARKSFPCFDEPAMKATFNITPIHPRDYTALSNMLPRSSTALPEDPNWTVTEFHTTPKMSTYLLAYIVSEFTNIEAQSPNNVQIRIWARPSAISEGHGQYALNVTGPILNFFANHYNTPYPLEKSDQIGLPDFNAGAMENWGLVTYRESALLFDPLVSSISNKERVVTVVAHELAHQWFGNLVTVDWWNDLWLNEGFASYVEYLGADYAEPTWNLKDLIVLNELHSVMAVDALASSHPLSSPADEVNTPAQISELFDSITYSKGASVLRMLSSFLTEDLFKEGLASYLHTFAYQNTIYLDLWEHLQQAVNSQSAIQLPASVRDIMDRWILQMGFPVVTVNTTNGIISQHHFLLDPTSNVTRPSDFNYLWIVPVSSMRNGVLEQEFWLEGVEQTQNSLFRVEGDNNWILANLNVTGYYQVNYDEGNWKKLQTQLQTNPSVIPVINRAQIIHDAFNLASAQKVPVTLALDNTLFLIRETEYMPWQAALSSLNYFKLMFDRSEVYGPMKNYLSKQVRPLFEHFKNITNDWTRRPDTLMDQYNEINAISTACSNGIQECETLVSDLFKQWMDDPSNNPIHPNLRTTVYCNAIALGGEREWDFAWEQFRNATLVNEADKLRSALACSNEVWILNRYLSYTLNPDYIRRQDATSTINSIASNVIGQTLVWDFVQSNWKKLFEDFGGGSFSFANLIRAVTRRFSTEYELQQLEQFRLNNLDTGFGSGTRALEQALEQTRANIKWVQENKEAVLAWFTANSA
Description: Le pouvoir inhibiteur est mesuré sur l'aminopeptidase purifiée du rein de lapin en suivant le protocole décrit dans la littérature (Romaine Bouboutou, Gilles Waksman, Joceyline Deim, Marie-Claude Fournié-Zaluski and Bernard P. Roques, Life Sciences, vol. 35, pp. 1023-1030, 1984).
Le dosage est conduit d'une manière identique au précédent, en utilisant la [³H]Leu⁵-enképhaline à la place de la [³H]D-Ala²-Leu⁵-enképhaline comme substrat.
as §1

souris = assay: Hot plate test (licking and jump reflex, plate at 55°C); assay type: in vivo; conditions: mouse, intracerebroventricular, 50 )g, plate 55°C; for Saut: cut off 240 s
Description: Il concerne le réflexe de lèchement et de saut de la souris sur une plaque chauffée à 55°C selon la méthode de Jacob et coll. (Arch. Int. Pharmacodyn. 122, 287-300, 1959 : 133, 296-300, 1961).
Administrés par voie intracérébroventriculaire chez la souris, les inhibiteurs testés présentent un effet propre à la fois sur le temps de latence du saut et sur celui des lèchements. Ces effets sont reversés par la naloxone (antagoniste morphinique).
Le cut off correspond au moment où la souris est enlevée si elle n'a pas sauté ;

| IC50 [1] [M] | IC50 [2] [M] | IC50 [3] [M] | Molecule | Lèchements (s) (souris; cut off 30 s) | Saut (souris) [s] | Lèchements (souris; cut off 30 s) [s] |
| --- | --- | --- | --- | --- | --- | --- |
| 2e-09 | 3e-08 | 5e-07 | O=C(O)CCNC(=O)C(CC(=O)NO)Cc1ccccc1 (racemic) [compound 1, N[N(hydroxy)amino-carbonyl-3 benzyl-2 Oxo-1 propyl] β-alanine] |  |  |  |
| 5e-09 | 5e-10 | 3e-07 | CC(CC(=O)O)NC(=O)C(CC(=O)NO)Cc1ccccc1 (stereo not drawn) [compound 2, N[N(hydroxy)aminocarbonyl-3 benzyl-2 oxo-1 propyl] methyl-3 β alanine] |  |  |  |
| 2e-09 | 2e-08 | 4e-07 | CC(CNC(=O)C(CC(=O)NO)Cc1ccccc1)C(=O)O (stereo not drawn) [compound 3, N[N(hydroxy)aminocarbonyl-3 benzyl-2 oxo-1 propyl] methyl-2 β alanine] |  |  |  |
| 2e-09 | 5e-10 | 2e-08 | O=C(O)C[C@H](Cc1ccccc1)NC(=O)[C@@H](CC(=O)NO)Cc1ccccc1 [compound 5, N[N(hydroxy)aminocarbonyl-3 benzyl-2 oxo-1 propyl] benzyl-3 β alanine] |  |  |  |
| 1.4e-09 | 8e-07 | 1e-05 | O=C(O)CCC(=O)N[C@@H](CC(=O)NO)Cc1ccccc1 [compound 8, N[carboxy-3 oxo-1 propyl) amino]-3 phenyl-4 (Nʹ[hydroxyamino]-1 oxo-1 butane] |  |  |  |
| 9e-10 | 1.8e-07 | 1e-05 | CC(CC(=O)O)C(=O)N[C@@H](CC(=O)NO)Cc1ccccc1 (stereo partly shown) [compound 9] |  |  |  |
| 5e-10 | 8e-07 | 4e-06 | CC(CC(=O)NC(CC(=O)NOCc1ccccc1)Cc1ccccc1)C(=O)O (stereo not shown) [compound 10] |  |  |  |
| 4e-09 | 1.5e-09 | 5e-08 | Acide N[(hydroxy amino carbonyl)-3 benzyl-2 oxo-1 propyl] amino-2 cyclohéxane carboxylique [compound 7] | 26,2 s | 240 |  |
| 5e-10 | 2e-09 | 7e-08 | Acide [N[N(hydroxyamino) carbonyl-1 phényl-3] propyl]-2 carboxamido-2 cyclohéxanoïque [compound 11] |  | 240 | 30 |
| 1.5e-09 | 1e-09 | 8e-08 | N[N-hydroxyamino) carbonyl-3 benzyl-2 oxo-1 propyl] phényl-2 β-alanine [compound 6] |  |  |  |
